Consider 1 compound from patent publication US20230149355A1, “COMPOSITIONS AND METHODS FOR MODULATING TRP CHANNEL ACTIVITY” (priority 2020, published 2023).

In one assay the test system is intestinal motility. Put plainly: Zebrafish intestinal motility (PIV-Lab velocity analysis). Format: in vivo. As to conditions: AhR inhibitor 10 μM or folic acid 10 μM for 2 hours.
The subject of a further assay is E. tarda. Briefly: Intestinal E. tarda mCherry accumulation in zebrafish treated with AhR inhibitors. Format: in vivo. Conditions: AhR inhibitor 1 μM or folic acid 10 μM, 3 dpf to 6 dpf. As for the experimental part:
For E. tarda colonization experiments, fertilized zebrafish eggs were collected, sorted and transferred into a cell culture flask containing 80 mL GZM at 0 dpf. At 3 dpf, dead embryos and 60 mL GZM were removed and replaced with 50 mL fresh GZM in each flask. To facilitate consistent commensal gut bacterial colonization, an additional 10 mL of filtered system water (5 μm filter, SLSV025LS, Millipore) were added to each flask. Overnight E. tarda mCherry culture was harvested, washed three times with GZM. 150 μL of GZM-washed E. tarda mCherry culture were inoculated into each flask. The E. tarda concentration is ˜10^6 CFU/ml. […] At 6 dpf, zebrafish larvae were subjected to fluorescence imaging analysis or CFU quantification. For fluorescence imaging analysis, zebrafish larvae were anesthetized with Tricaine ([…]), mounted in 3% methylcellulose and imaged with a Leica M205 FA upright fluorescence stereomicroscope equipped with a Leica DFC 365FX camera. For CFU quantification, digestive tracts were dissected and transferred into 1 mL sterile PBS which was then mechanically disassociated using a Tissue-Tearor (BioSpec Products, 985370). […] The mCherry+ colonies were quantified from each plate and E. tarda colony forming units (CFUs) per fish were calculated. […]

The next assay concerns the target T1, AhR (Homo sapiens, UniProt P35869).
T1 sequence (P35869 11-848): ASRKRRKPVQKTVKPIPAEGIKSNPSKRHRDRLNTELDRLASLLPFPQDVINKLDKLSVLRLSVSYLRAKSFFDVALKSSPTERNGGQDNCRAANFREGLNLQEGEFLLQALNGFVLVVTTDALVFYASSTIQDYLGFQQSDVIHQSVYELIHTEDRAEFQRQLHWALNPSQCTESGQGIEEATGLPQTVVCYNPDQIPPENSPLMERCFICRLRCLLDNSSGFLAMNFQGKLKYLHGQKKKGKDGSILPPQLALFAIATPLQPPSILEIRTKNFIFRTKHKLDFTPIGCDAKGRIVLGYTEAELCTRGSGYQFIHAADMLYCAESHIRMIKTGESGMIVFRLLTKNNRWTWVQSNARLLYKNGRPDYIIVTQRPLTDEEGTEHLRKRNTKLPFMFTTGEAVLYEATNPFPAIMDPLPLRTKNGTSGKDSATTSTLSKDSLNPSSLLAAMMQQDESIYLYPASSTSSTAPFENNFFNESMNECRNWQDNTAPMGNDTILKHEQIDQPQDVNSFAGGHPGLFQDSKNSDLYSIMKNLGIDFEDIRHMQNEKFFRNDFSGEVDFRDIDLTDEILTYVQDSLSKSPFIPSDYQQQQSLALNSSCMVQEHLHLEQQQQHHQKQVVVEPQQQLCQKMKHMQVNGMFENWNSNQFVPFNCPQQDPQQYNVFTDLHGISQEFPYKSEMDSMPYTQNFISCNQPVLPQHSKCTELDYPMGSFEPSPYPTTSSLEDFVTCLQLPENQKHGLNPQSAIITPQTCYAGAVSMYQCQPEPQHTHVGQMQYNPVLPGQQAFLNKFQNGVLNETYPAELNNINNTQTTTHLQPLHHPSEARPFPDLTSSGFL
As to conditions: Kim et al., 2020; cited from earlier work.

For the next assay, the system named is AhR signaling. Conditions: 0.05 μM; cited from earlier work.

Procedure for intestinal motility: For EEC Trpa1 activation using the Optovin platform, zebrafish larvae were treated with 10 μM Optovin overnight. Following Optovin treatment, unanesthetized zebrafish were mounted in 1% LMA and imaged under a 780 upright Zeiss confocal microscope using 20× water objective lenses. For all the experiments, the mid-intestine region was imaged (FIG. 10D). The intestinal epithelium was selected as the region of interest (ROI) (FIG. 10A). Serial images were obtained at 1 s/frame. A 405 nm pulse of light was applied to the ROI at 1 pulse/10 s. For some experiments (FIG. 7D-F, FIG. 10B-G), the images were obtained at 10 s/frame.
The zebrafish intestinal motility is quantified through recorded image series of zebrafish intestine using the method similar as previously described (Ganz et al., 2018). Intestinal p velocity and v velocity were used to estimate intestinal motility in zebrafish as previously described using the PIV-Lab MATLAB app (Ganz et al., 2018). A positive value of the μ velocity indicates an anterograde intestinal movement and a negative value of the μ velocity indicates a retrograde intestinal movement. The time-course p velocity number is plotted as heatmaps. When calculating the mean velocity, only the mean velocity magnitude was calculated, which therefore doesn't account for the movement direction. The MTrackJ FIJI plugin was used to quantify the mean velocity magnitude (Meijering et al., 2012).

Turning to `Nc1nc2ncc(CNc3ccc(C(=O)N[C@@H](CCC(=O)O)C(=O)O)cc3)nc2c(=O)[nH]1` [Folic acid], the “Effect on Optovin-UV induced intestinal motility change” value with intestinal motility is listed as “insufficient to block”. The “Effect on E. tarda intestinal accumulation” value in the assay with E. tarda is reported as “insufficient to block”. Also, the “Concentration at which it acts as a competitive AhR antagonist (as low as)” value at AhR is 10 ng/mL. For the same compound, the “Inhibition of AhR signaling in early zebrafish embryos” value with AhR signaling was “inhibits”.
